Assay results: patent US6844365B2, “Substances for use in treating psoriasis” (Laboratoire Medidom S.A., priority 2000, dated 2005)

Columns and labels:
TNF-α = TNF-α release from keratinocytes by ELISA; type: cell-based, human; details: 24 hours after UVB irradiation
Description: UV-B radiation was delivered with a battery of lamps (TL 20W/12RS UV-B Philips Medical) before and after treatment with diacerein.
In other experiments, UVB irradiation was delivered only after diacerein addition.
Before irradiation, the cells were washed once with PBS and irradiated in presence of PBS.
Controls were sham irradiated for identical periods as measured by International Light Research Radiometer (Newburyport, Mass.).
Quantitation of cytokine levels was performed by a quantitative two-site enzyme immunoassay according to manufacturer's instructions, using ELISA kits for IL-1, IL-6, IL-8 and TNF-α.
The sample concentration was determined by absorbance at 450 nm with the correction wavelength set at 540 nm.
As mentioned above, TNF-α is of great relevance in the pathomechanisms of psoriasis. Therefore, we wanted to evaluate the effect of diacerein on the release of this cytokine from human keratinocytes.

[1] = system: patients with mild to moderate psoriatic arthritis; assay: Clinical trial of Artrodar (diacerein) in psoriasis with mild to moderate psoriatic arthritis; type: in vivo, human; details: for Ritchie articular index, hip sx: baseline Ritchie 2
Description: The aim of this study was to assess the efficacy and safety of diacerein in the treatment of psoriasis with mild to moderate psoratic arthritis.
The investigational drug, Artrodar® (Laboratoire Medidom S. A. (Geneva)), is a size 1 hard gelatin capsule.
Ten patients satisfying all the inclusion and exclusion criteria indicated below were tested.
Male or female patients over 18 years of age with • cutaneous involvement defined by the psoriasis area and severity index (PASI) (<15); • persistent negative latex test or ELISA for rheumatoid factors; • established diagnosis of mild to moderate severity psoriatic arthritis of at least 3 months duration characterized by oligoarthritis (<4 involved joints) and/or spondyloarthritis; • normal values for haematology and clinical chemistry values (ESR 1 h<30 mm, WBC with leucocyte differential count, RBC, Hb ([…]), platelets, creatinine, transaminases, alkaline phosphatase, bilirubin); • normal or drug-controlled blood pressure values; • failure to respond to topical (including emollients and coal tar) and phototherapy; • evidence of medically approved contraceptive methods in women of childbearing age; • written informed consent from each patient;
Exclusion criteria: • patient under 18 years of age; • positive rheumatoid factor (RF) or antinuclear antibodies (ANA) >1:80; • history of inflammatory bowel disease or evidence of another rheumatologic disorder; • ascertained individual sensitivity to diacerein or any of the components in the capsule; • chronic illness that, in the opinion of the Investigator, would limit successful participation in the trial; • treatment with slow acting drugs and/or corticosteroids during the month prior to study start; • patient who, in the judgement of the Investigator, […]. Treatment
Treatment was 2×50 mg capsules of Artrodar® (each capsule contains 50 mg diacerein) taken orally per day for 6 months.
One capsule was to be taken in the afternoon after lunch while the other was to be taken in the evening after dinner.
No slow acting disease modifying drugs for psoriatic arthritis or corticosteroids were allowed during one month prior to the start of the study and throughout the study.
Treatment with NSAIDs, analgesics and other drugs was kept constant during the study and the doses used were recorded every week.
The following were assessed at baseline and at regular intervals during the study: • The PASI index (Fredriksson and Petterson, 1978)^i for assessing cutaneous involvement. • Pain on activity (target joint) assessed using the VAS. • Ritchie articular index.
All adverse events either observed by the Investigator or reported by […] were recorded.

IL-6, TNF-α and LIF = details: prior knowledge; cited from earlier work
[2] = cited from earlier work
[3] = of 7 patients, 2×50 mg orally per day
[4] = patient one, 2nd visit, improved from Ritchie 1
[5] = patient three, 2nd visit, improved from Ritchie 2

Q: With `CC(=O)Oc1cccc2c1C(=O)c1c(OC(C)=O)cc(C(=O)O)cc1C2=O` [diacerein, 4,5-bis(acetyloxy)-9,10-dihydro-9,10-dioxo-2-anthracene carboxylic acid] as the compound, how does the “doses down-regulating UVB-induced TNF-α release” value (TNF-α) read?
A: The value was 50 to 200 µM.

Q: What about the adverse effect reported ([1]; all treated patients, caused drop-out) of the same compound?
A: The adverse effect reported was “diarrhea in one patient”.

Q: And the “number of patients who responded after 1 month” value [1, 3]?
A: Its value is 4 patients.

Q: And the “number of patients who responded after 2 months” value [1, 3]?
A: Its value is 2 patients.

Q: And the “number of patients who responded after 3 months” value [1, 3]?
A: The value was 1 patients.

Q: And the psoriasis status ([1]; patient five, 2nd visit Jul. 14, 2000, 1 month treatment, baseline PASI 10.1)?
A: Its psoriasis status is “Psoriasis: status unchanged”.

Q: What about the “Pain on VAS” value ([1]; patient five, 2nd visit, baseline 60 mm) of the same compound?
A: Its value is “Pain on VAS = 50 mm”.

Q: What about the “Ritchie articular index, knee pain (bilateral)” value ([1]; patient five, 2nd visit, baseline Ritchie 1) of the same compound?
A: The value was “had knee pain (bilateral) (Ritchie 1)”.

Q: And the Responder ([1]; patient five, treatment period only 1 month)?
A: The Responder was “No as”.

Q: And the Responder ([1]; patient four)?
A: The Responder was “Yes”.

Q: And the PASI score ([1]; patient four, 2nd visit Jul. 13, 2000, baseline 13.6)?
A: The PASI score was “PASI score = 6.7”.

Q: And the “Pain on VAS” value ([1]; patient four, 2nd visit, baseline 50 mm)?
A: Its value is “Pain on VAS = 50 mm”.

Q: What about the “Ritchie articular index, shoulder sx” value ([1]; patient four, 2nd visit, baseline Ritchie 1) of the same compound?
A: The value was “Shoulder sx: Unchanged”.

Q: And the “Ritchie articular index, hip sx” value ([1]; patient four, 2nd visit)?
A: The value was “Hip sx: Unchanged”.

Q: What about the “Ritchie articular index, TMC dx” value ([1]; patient four, 2nd visit, improved from Ritchie 1) of the same compound?
A: The value was “TMC dx: Improved from Ritchie 1 to 0”.

Q: What about the PASI score ([1]; patient four, 3rd visit Aug. 30, 2000, baseline 13.6) of the same compound?
A: The PASI score was “PASI score = 2.2”.

Q: And the “Pain on VAS” value ([1]; patient four, 3rd visit, baseline 50 mm)?
A: Its value is “Pain on VAS = 50 mm”.

Q: What about the “Ritchie articular index, shoulder sx” value ([1]; patient four, 3rd visit, baseline Ritchie 1) of the same compound?
A: The value was “Shoulder sx: Unchanged”.

Q: What about the “Ritchie articular index, hip sx” value ([1]; patient four, 3rd visit) of the same compound?
A: The value was “Hip sx: Unchanged”.

Q: What about the “Ritchie articular index, TMC dx” value ([1]; patient four, 3rd visit, improved from Ritchie 1) of the same compound?
A: Its value is “TMC dx: Improved from Ritchie 1 to 0”.

Q: And the Responder ([1]; patient one (stopped after 4 weeks))?
A: Its Responder is “Yes”.

Q: And the PASI score ([1]; patient one, 2nd visit Aug. 18, 2000, after stopping treatment in mid-July and mild return, baseline 4.8)?
A: The PASI score was “PASI score = 2.4”.

Q: What about the “Ritchie articular index, TMC sx” value [1, 4] of the same compound?
A: Its value is “TMC sx improved from Ritchie 1 to 0”.

Q: And the “Ritchie articular index, shoulder sx” value [1, 4]?
A: The value was “Shoulder sx: improved from Ritchie 1 to 0”.

Q: What about the “Ritchie articular index, tibiotarsal joint sx” value ([1]; patient one, 2nd visit, improved from Ritchie 2) of the same compound?
A: Its value is “Tibiotarsal joint sx: improved from Ritchie 2 to 0”.

Q: And the Responder ([1]; patient seven)?
A: The Responder was “Yes”.

Q: And the PASI score ([1]; patient seven, 2nd visit Jun. 6, 2000, baseline 9.6)?
A: Its PASI score is “PASI score = 6.6”.

Q: What about the “Pain on the VAS” value ([1]; patient seven, 2nd visit, baseline 60 mm) of the same compound?
A: Its value is “Pain on the VAS = 50 mm”.

Q: And the PASI score ([1]; patient seven, 3rd visit Jul. 3, 2000, baseline 9.6)?
A: Its PASI score is “PASI = score 5.0”.

Q: And the “Pain on the VAS” value ([1]; patient seven, 3rd visit, baseline 60 mm)?
A: Its value is “Joint swelling decreased in all joints. Pain on the VAS = 40 mm”.

Q: What about the PASI score ([1]; patient seven, 4th visit Aug. 18, 2000, baseline 9.6) of the same compound?
A: Its PASI score is “PASI score = 0.9”.

Q: And the Responder ([1]; patient six)?
A: The Responder was “Yes”.

Q: And the psoriasis status ([1]; patient six, 2nd visit, after 2 months treatment, baseline PASI 8.1)?
A: Its psoriasis status is “disappeared in June”.

Q: What about the PASI score ([1]; patient six, 3rd visit Jul. 19, 2000 (psoriasis reappeared), baseline 8.1) of the same compound?
A: Its PASI score is “PASI score = 3.9”.

Q: What about the “Ritchie articular index, right knee” value ([1]; patient six, 4th visit, baseline Ritchie 3) of the same compound?
A: Its value is 0.

Q: What about the “Pain on the VAS” value ([1]; patient six, right knee, 3rd visit, baseline 50 mm) of the same compound?
A: The value was “VAS = 50 mm”.

Q: And the “pain (VAS)” value ([1]; patient six, right knee, 4th visit Aug. 29, 2000, baseline 50 mm)?
A: The value was 1 cm.

Q: And the Responder ([1]; patient three)?
A: The Responder was “Yes”.

Q: And the PASI score ([1]; patient three, 2nd visit Jul. 20, 2000, baseline 6.9)?
A: The PASI score was “PASI score = 6.9”.

Q: What about the “Ritchie articular index, wrist dx” value [1, 5] of the same compound?
A: The value was “Wrist dx: improved from Ritchie 2 to 1”.

Q: And the “Ritchie articular index, wrist sx” value [1, 5]?
A: Its value is “Wrist sx: improved from Ritchie 2 to 0”.

Q: What about the “Ritchie articular index, wrist sx” value ([1]; patient three, 3rd visit) of the same compound?
A: Its value is “Wrist sx: Ritchie 0”.

Q: What about the Morning stiffness ([1]; patient three, 3rd visit Aug. 24, 2000) of the same compound?
A: Its Morning stiffness is “Morning stiffness = 30 minutes”.

Q: And the PASI score ([1]; patient three, 3rd visit Aug. 24, 2000, baseline 6.9)?
A: Its PASI score is “PASI score = 3.9”.

Q: And the “Ritchie articular index, wrist dx” value ([1]; patient three, 3rd visit, improved from Ritchie 1)?
A: Its value is “Arthritis: Wrist dx: improved from Ritchie 1 to 0”.

Q: And the Responder ([1]; patient two (stopped after 1 month, diarrhea))?
A: The Responder was “Yes”.

Q: What about the PASI score ([1]; patient two, 2nd visit Jul. 20, 2000, baseline 0.6) of the same compound?
A: The PASI score was “PASI score = 0.1”.

Q: And the “Ritchie articular index, 2nd MCF dx” value ([1]; patient two, 2nd visit, printed as improved from Ritchie 1, baseline Ritchie 2)?
A: Its value is “Arthritis: 2nd MCF, dx, improved from Ritchie 1 to Ritchie 0”.

Q: And the “patients who responded to treatment (improvement on PASI score)” value ([1]; seven patients who took Diacerein one month or more, 2×50 mg capsules orally per day)?
A: The value was 100%.

Q: What about the “effect on IL-6 and other cytokines such as TNF-α and LIF” value (IL-6, TNF-α and LIF) of the same compound?
A: Its value is “inhibit IL-6 and other cytokines such as TNF-α and LIF”.

Q: And the carcinogenic potential ([2]; extensive toxicology studies)?
A: The carcinogenic potential was “does not show carcinogenic potential”.

Q: And the tolerability ([2]; prior use in osteoarthritis and rheumatoid arthritis, toxicology studies)?
A: The tolerability was “well tolerated”.
